Test results taken from patent publication US8802700B2 (Vertex Pharmaceuticals Incorporated, priority 2010, dated 2014).

Biological target: T1, ΔF508-CFTR (Homo sapiens, UniProt P13569, DEL508-508)
T1 construct: expressed in transfected cells
Test: Membrane potential optical assay (FRET voltage-sensor dyes, VIPR), identification of potentiator compounds
Format: cell-based
Settings: Table 3; assay not given
Outline: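 Potentiator screen measured membrane potential via FRET between CC2-DMPE donor and DiSBAC2(3), read on VIPR II. Compound went in with the first addition of chloride-free gluconate bath; cells were ΔF508-CFTR-expressing NIH3T3 mouse fibroblasts, temperature-corrected at 27 °C for 24 h.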

T1 sequence (P13569 with tags, fused parts or gaps DEL508-508): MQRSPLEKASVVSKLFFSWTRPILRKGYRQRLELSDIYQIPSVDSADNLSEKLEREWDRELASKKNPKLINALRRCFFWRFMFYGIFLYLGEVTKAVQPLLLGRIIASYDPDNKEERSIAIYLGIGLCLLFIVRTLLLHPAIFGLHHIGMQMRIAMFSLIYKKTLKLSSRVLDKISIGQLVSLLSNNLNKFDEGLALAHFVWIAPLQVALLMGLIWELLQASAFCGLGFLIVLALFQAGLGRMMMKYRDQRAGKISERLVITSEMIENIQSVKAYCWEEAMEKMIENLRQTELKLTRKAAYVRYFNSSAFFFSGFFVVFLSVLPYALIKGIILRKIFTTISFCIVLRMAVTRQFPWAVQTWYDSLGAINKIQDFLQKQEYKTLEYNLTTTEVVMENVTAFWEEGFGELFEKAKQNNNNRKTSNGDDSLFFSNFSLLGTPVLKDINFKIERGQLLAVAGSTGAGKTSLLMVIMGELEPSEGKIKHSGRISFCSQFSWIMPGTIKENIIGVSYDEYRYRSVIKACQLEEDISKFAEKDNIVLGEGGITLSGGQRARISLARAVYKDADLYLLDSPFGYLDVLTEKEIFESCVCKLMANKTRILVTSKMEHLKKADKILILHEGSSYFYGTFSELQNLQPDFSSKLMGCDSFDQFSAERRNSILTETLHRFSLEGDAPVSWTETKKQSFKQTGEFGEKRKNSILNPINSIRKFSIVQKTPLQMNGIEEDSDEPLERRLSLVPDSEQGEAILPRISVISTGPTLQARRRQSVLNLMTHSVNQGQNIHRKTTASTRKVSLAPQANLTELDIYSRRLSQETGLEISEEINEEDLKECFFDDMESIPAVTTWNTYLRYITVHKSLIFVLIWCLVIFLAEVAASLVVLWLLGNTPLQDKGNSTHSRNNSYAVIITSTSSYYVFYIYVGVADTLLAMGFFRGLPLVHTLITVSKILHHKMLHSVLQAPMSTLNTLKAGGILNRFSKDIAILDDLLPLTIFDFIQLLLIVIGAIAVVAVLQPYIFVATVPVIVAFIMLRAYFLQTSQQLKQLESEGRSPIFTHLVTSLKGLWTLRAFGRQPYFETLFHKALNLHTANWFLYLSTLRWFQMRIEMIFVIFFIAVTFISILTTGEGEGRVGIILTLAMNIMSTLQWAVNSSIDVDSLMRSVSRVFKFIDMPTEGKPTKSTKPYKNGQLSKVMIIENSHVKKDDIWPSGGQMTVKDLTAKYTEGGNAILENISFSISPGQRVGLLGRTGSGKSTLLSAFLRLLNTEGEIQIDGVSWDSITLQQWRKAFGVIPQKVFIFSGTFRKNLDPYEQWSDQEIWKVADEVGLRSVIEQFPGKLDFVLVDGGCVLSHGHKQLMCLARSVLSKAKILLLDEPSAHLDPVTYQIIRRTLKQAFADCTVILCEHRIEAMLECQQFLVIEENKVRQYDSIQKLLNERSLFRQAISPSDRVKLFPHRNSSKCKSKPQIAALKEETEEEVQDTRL

EC50	Compound
< 10 µM	O=C(Nc1cc(O)c2ccccc2c1)c1c[nH]c2ccccc2c1=O [Compound 551, N-(4-hydroxy-2-naphthyl)-4-oxo-1H-quinoline-3-carboxamide]
< 10 µM	CCOC(=O)Nc1cc(NC(=O)c2c[nH]c3ccccc3c2=O)ccc1CC [Compound 298, [2-ethyl-5-[(4-oxo-1H-quinolin-3-yl)carbonylamino]phenyl]aminoformic acid ethyl ester]

Same assay, conditions: Table 3; assay not given; read-out: % Activity (% Efficacy, relative efficacy)

Compound	Emax
O=C(Nc1ccc(Cl)nc1)c1c[nH]c2ccccc2c1=O [Compound 392, N-(6-chloro-3-pyridyl)-4-oxo-1H-quinoline-3-carboxamide]	< 25%
Cc1ccnc(NC(=O)c2c[nH]c3ccccc3c2=O)c1 [Compound 84, N-(4-methyl-2-pyridyl)-4-oxo-1H-quinoline-3-carboxamide]	< 25%
O=C(Nc1cc(O)cc(C(F)(F)F)c1)c1c[nH]c2ccc(F)cc2c1=O [Compound 574, 6-fluoro-N-[3-hydroxy-5-(trifluoromethyl)phenyl]-4-oxo-1H-quinoline-3-carboxamide]	25 to 100%
O=C(Nc1ccccc1-n1cccc1)c1c[nH]c2ccccc2c1=O [Compound 293, 4-oxo-N-[2-(1H-pyrrol-1-yl)phenyl]-1H-quinoline-3-carboxamide]	> 100%
COc1ccc(C(C)(C)C)cc1NC(=O)c1c[nH]c2ccccc2c1=O [Compound 211, N-(2-methoxy-5-tert-butyl-phenyl)-4-oxo-1H-quinoline-3-carboxamide]	25 to 100%
CCOC(=O)Nc1cc(NC(=O)c2c[nH]c3ccccc3c2=O)ccc1C(C)C [Compound 225, [2-isopropyl-5-[(4-oxo-1H-quinolin-3-yl)carbonylamino]phenyl]aminoformic acid ethyl ester]	25 to 100%
COc1ccccc1Oc1ccc(C(F)(F)F)cc1NC(=O)c1c[nH]c2ccccc2c1=O [Compound 3, N-[2-(2-methoxyphenoxy)-5-(trifluoromethyl)phenyl]-4-oxo-1H-quinoline-3-carboxamide]	25 to 100%
O=C(Nc1ccc(N2CCC2)cc1C(F)(F)F)c1c[nH]c2ccccc2c1=O [Compound 689, N-[4-azetidin-1-yl-2-(trifluoromethyl)phenyl]-4-oxo-1H-quinoline-3-carboxamide]	25 to 100%
O=C(Nc1cccc(O)c1)c1c[nH]c2ccccc2c1=O [Compound 144, N-(3-hydroxyphenyl)-4-oxo-1H-quinoline-3-carboxamide]	25 to 100%
O=C(Nc1cc(O)cc(C(F)(F)F)c1)c1c[nH]c2ccccc2c1=O [Compound 563, N-[3-hydroxy-5-(trifluoromethyl)phenyl]-4-oxo-1H-quinoline-3-carboxamide]	25 to 100%
O=C(Nc1cccc(S(=O)(=O)N2CCCC2)c1)c1c[nH]c2ccccc2c1=O [Compound 24, 4-oxo-N-(3-pyrrolidin-1-ylsulfonylphenyl)-1H-quinoline-3-carboxamide]	< 25%
CC(C)c1ccc(NC(=O)OC(C)(C)C)cc1NC(=O)c1c[nH]c2ccccc2c1=O [Compound 60, [4-isopropyl-3-[(4-oxo-1H-quinolin-3-yl)carbonylamino]phenyl]aminoformic acid tert-butyl ester]	25 to 100%
Cc1ccc(C(N)=O)c(NC(=O)c2c[nH]c3ccccc3c2=O)c1 [Compound 335, N-(2-carbamoyl-5-methyl-phenyl)-4-oxo-1H-quinoline-3-carboxamide]	< 25%
O=C(Nc1ccc(Cl)cn1)c1c[nH]c2ccccc2c1=O [Compound 170, N-(5-chloro-2-pyridyl)-4-oxo-1H-quinoline-3-carboxamide]	< 25%
CCOCCc1c[nH]c2cc(NC(=O)c3c[nH]c4ccccc4c3=O)ccc12 [Compound 423, N-[3-(2-ethoxyethyl)-1H-indol-6-yl]-4-oxo-1H-quinoline-3-carboxamide]	25 to 100%
O=C(Nc1ccccc1-c1cccc(Cl)c1Cl)c1c[nH]c2ccccc2c1=O [Compound 171, N-[2-(2,3-dichlorophenyl)phenyl]-4-oxo-1H-quinoline-3-carboxamide]	25 to 100%
CCc1cc(Br)ccc1NC(=O)c1c[nH]c2ccccc2c1=O [Compound 263, N-(4-bromo-2-ethyl-phenyl)-4-oxo-1H-quinoline-3-carboxamide]	25 to 100%
CC(C)c1ccc(NC(=O)c2c[nH]c3ccc(F)cc3c2=O)c(C(F)(F)F)c1 [Compound 557, 6-fluoro-N-[4-isopropyl-2-(trifluoromethyl)phenyl]-4-oxo-1H-quinoline-3-carboxamide]	25 to 100%
CCCCOC(=O)NCC(C)(C)c1ccc(NC(=O)c2c[nH]c3ccccc3c2=O)cc1 [Compound 460, [2-methyl-2-[4-[(4-oxo-1H-quinolin-3-yl)carbonylamino]phenyl]-propyl]aminoformic acid butyl ester]	25 to 100%
CC(C)(C)c1cc(F)c(NC(=O)c2c[nH]c3ccc(Cl)cc3c2=O)cc1O [Compound 561, 6-chloro-N-(2-fluoro-5-hydroxy-4-tert-butyl-phenyl)-4-oxo-1H-quinoline-3-carboxamide]	25 to 100%
COc1ccc(-c2ccccc2NC(=O)c2c[nH]c3ccccc3c2=O)cc1 [Compound 305, N-[2-(4-methoxyphenyl)phenyl]-4-oxo-1H-quinoline-3-carboxamide]	> 100%
CCOC(=O)Nc1cc(NC(=O)c2c[nH]c3ccccc3c2=O)ccc1CC [Compound 298, [2-ethyl-5-[(4-oxo-1H-quinolin-3-yl)carbonylamino]phenyl]aminoformic acid ethyl ester]	25 to 100%
O=C(Nc1ccc(N2CCOCC2)nc1)c1c[nH]c2ccccc2c1=O [Compound 400, N-(6-morpholino-3-pyridyl)-4-oxo-1H-quinoline-3-carboxamide]	< 25%
CC(C)(C)c1ccc(N)cc1NC(=O)c1c[nH]c2ccccc2c1=O [Compound 260, N-(5-Amino-2-tert-butyl-phenyl)-4-oxo-1H-quinoline-3-carboxamide]	25 to 100%
CC(C)(C)COC(=O)NCC(C)(C)c1ccc(NC(=O)c2c[nH]c3ccccc3c2=O)cc1 [Compound 341, [2-methyl-2-[4-[(4-oxo-1H-quinolin-3-yl)carbonylamino]phenyl]-propyl]aminoformic acid neopentyl ester]	25 to 100%
O=C(Nc1ccc2ccn(Cc3ccccc3)c2c1)c1c[nH]c2ccccc2c1=O [Compound 203, N-(1-benzyl-1H-indol-6-yl)-4-oxo-1H-quinoline-3-carboxamide]	25 to 100%
Cc1ccc(C#N)c(NC(=O)c2c[nH]c3ccccc3c2=O)c1 [Compound 89, N-(2-cyano-5-methyl-phenyl)-4-oxo-1H-quinoline-3-carboxamide]	< 25%

Second part, the compound after the results:

Emax	Compound
25 to 100%	Cc1cc2ccc(NC(=O)c3c[nH]c4ccccc4c3=O)cc2[nH]1 [Compound 104, N-(2-methyl-1H-indol-6-yl)-4-oxo-1H-quinoline-3-carboxamide]
25 to 100%	O=C(Nc1ccccc1-c1ccc(F)cc1)c1c[nH]c2ccccc2c1=O [Compound 182, N-[2-(4-fluorophenyl)phenyl]-4-oxo-1H-quinoline-3-carboxamide]
< 25%	O=C(Nc1ccc(S(=O)(=O)Nc2ccccn2)cc1)c1c[nH]c2ccccc2c1=O [Compound 21, 4-oxo-N-[4-(2-pyridylsulfamoyl)phenyl]-1H-quinoline-3-carboxamide]
25 to 100%	Cc1cccc2[nH]cc(C(=O)Nc3ccc(N4[C@@H](C)CC[C@@H]4C)cc3C(F)(F)F)c(=O)c12 [Compound 516, N-(4-((2S,5S)-2,5-dimethylpyrrolidin-1-yl)-2-(trifluoromethyl)phenyl)-5-methyl-4-oxo-1,4-dihydroquinoline-3-carboxamide]
25 to 100%	CCCc1ccc(NC(=O)c2c[nH]c3ccccc3c2=O)cc1NC(=O)OC [Compound 221, [5-[(4-oxo-1H-quinolin-3-yl)carbonylamino]-2-propyl-phenyl]aminoformic acid methyl ester]
25 to 100%	COC(=O)c1cc(NC(=O)c2c[nH]c3ccccc3c2=O)ccc1C(C)(C)C [Compound 444, 5-[(4-oxo-1H-quinolin-3-yl)carbonylamino]-2-tert-butyl-benzoic acid methyl ester]
25 to 100%	CN(C)[C@@H]1CCN(c2ccc(NC(=O)c3c[nH]c4ccccc4c3=O)c(C(F)(F)F)c2)C1 [Compound 534, (R)-N-(4-(3-(dimethylamino)pyrrolidin-1-yl)-2-(trifluoromethyl)phenyl)-4-oxo-1,4-dihydroquinoline-3-carboxamide]
25 to 100%	COc1cc(NC(=O)c2c[nH]c3ccccc3c2=O)ccc1C(C)(C)C [Compound 2, N-(3-methoxy-4-tert-butyl-phenyl)-4-oxo-1H-quinoline-3-carboxamide]
25 to 100%	Cc1cccc2[nH]cc(C(=O)Nc3cc(O)c(C4(C)CCCCC4)cc3F)c(=O)c12 [Compound 498, N-[2-fluoro-5-hydroxy-4-(1-methylcyclohexyl)-phenyl]-5-methyl-4-oxo-1H-quinoline-3-carboxamide]
25 to 100%	O=C(Nc1cc(O)c2ccccc2c1)c1c[nH]c2ccccc2c1=O [Compound 551, N-(4-hydroxy-2-naphthyl)-4-oxo-1H-quinoline-3-carboxamide]
< 25%	Cn1cc(C(=O)Nc2ccccc2)c(=O)c2ccccc21 [Compound 468, 1-methyl-4-oxo-N-phenyl-1H-quinoline-3-carboxamide]
25 to 100%	O=C(Nc1ccc(OC(F)(F)F)cc1)c1c[nH]c2ccccc2c1=O [Compound 176, 4-oxo-N-[4-(trifluoromethoxy)phenyl]-1H-quinoline-3-carboxamide]
25 to 100%	O=C(Nc1cc(N2CCCCC2)cc(C(F)(F)F)c1)c1c[nH]c2ccccc2c1=O [Compound 488, 4-oxo-N-[3-(1-piperidyl)-5-(trifluoromethyl)phenyl]-1H-quinoline-3-carboxamide]
25 to 100%	O=C(Nc1ccccc1-c1ccccn1)c1c[nH]c2ccccc2c1=O [Compound 692, 4-oxo-N-[2-(2-pyridyl)phenyl]-1H-quinoline-3-carboxamide]
25 to 100%	CC(C)(C)c1cc(C(C)(C)C)c(C(F)F)cc1NC(=O)c1c[nH]c2ccccc2c1=O [Compound 438, N-[5-(difluoromethyl)-2,4-ditert-butyl-phenyl]-4-oxo-1H-quinoline-3-carboxamide]
25 to 100%	CC(C)(C)c1ccc(NC(=O)c2c[nH]c3cccc(O)c3c2=O)cc1F [Compound 491, N-(3-fluoro-4-tert-butyl-phenyl)-5-hydroxy-4-oxo-1H-quinoline-3-carboxamide]
